Assay results published in patent US20260200890A1, “ADAR1 INHIBITORS AND METHODS OF USING THE SAME” (AVAMMUNE THERAPEUTICS INC., priority 2022, published 2026).

Columns and labels:
ADAR1 = molecular target: T1, ADAR1 (Homo sapiens, UniProt P55265); experiment: ADAR1 Inhibition Assay (IFN fold-induction, Quanti-Luc luminescence, p110 KO A549 dual cells); assay type: cell-based; conditions: IFN fold-induction vs DMSO, 24 and 48 h
T1 construct: endogenous in cells; host or cells: p110 KO A549 dual cells
T1 sequence (P55265 1-1226): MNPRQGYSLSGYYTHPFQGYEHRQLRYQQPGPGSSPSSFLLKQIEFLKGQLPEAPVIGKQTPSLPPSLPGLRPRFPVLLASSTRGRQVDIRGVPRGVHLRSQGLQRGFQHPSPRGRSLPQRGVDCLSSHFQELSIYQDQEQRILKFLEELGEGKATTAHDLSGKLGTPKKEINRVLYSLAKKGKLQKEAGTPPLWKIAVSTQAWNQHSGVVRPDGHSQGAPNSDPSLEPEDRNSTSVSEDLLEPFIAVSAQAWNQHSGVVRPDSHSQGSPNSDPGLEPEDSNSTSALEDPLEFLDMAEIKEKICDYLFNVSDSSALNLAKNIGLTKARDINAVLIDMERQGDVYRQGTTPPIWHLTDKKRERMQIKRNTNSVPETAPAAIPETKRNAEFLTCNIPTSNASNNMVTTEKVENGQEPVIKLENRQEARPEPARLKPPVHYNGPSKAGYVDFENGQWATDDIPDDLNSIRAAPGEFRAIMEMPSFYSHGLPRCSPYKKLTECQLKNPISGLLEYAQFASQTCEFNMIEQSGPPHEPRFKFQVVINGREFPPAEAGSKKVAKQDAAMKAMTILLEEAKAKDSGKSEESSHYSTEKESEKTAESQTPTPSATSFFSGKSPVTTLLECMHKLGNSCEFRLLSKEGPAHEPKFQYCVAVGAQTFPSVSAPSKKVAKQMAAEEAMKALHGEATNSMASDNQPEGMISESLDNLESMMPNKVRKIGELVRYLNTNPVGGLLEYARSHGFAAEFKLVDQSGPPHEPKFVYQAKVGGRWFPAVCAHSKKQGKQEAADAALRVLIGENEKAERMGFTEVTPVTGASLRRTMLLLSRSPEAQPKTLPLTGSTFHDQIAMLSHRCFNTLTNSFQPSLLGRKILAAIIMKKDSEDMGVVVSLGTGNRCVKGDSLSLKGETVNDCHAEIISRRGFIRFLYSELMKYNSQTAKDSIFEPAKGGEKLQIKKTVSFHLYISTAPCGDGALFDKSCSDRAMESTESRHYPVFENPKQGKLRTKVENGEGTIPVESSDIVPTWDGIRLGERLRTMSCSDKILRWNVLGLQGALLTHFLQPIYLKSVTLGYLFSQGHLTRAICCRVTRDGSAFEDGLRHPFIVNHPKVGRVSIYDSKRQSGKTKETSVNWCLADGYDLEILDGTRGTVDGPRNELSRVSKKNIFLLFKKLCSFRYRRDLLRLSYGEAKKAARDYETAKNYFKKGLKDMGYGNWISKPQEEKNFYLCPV
Summary of the method: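 p110 KO A549 dual cells (20,000/well) in supplemented DMEM, treated next day with compound at 1% final DMSO for 24 and 48 h at 37 °C, 5% CO2. Supernatant luminescence read with Quanti-Luc; IFN fold-induction = sample RLU/mean DMSO RLU, used for EC50.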

Zα domain of ADAR1 p150 = molecular target: T2, Zα domain of ADAR1 p150 (Homo sapiens, UniProt P55265); experiment: SPR binding assay; conditions: 6× his tag Zα domain immobilized on CM5 chip, analyte 0-25 μM
T2 construct: 10 μg/ml of Zα domain of ADAR1 was immobilized on CM5 chip using anti-HIS antibody; made in house
T2 sequence (P55265 133-199 limits assumed): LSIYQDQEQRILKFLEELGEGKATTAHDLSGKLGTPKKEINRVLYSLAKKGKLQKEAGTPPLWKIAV
Summary of the method: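 His-tagged Zα domain of human ADAR1 p150, bacterially expressed and Ni-NTA purified, was captured at 10 μg/ml on a CM5 chip via anti-His antibody. Analytes ran at 0–25 μM in PBSP + 5% DMSO, 30 μL/min, with 60 s contact and 320 s dissociation. Kd came from curve fitting.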

A549 p110 KO cells = experiment: IFN-β induction in A549 p110 KO cells; assay type: cell-based, human
WT A549 cells = experiment: IFN-β induction in WT A549 cells; assay type: cell-based, human; conditions: compared to A549 p110 KO cells, FIG. 1B
A549 (p110 KO) = experiment: Interferon-stimulated gene expression in A549 (p110 KO); assay type: cell-based, human; conditions: FIG. 2, FIGS. 3A-3D
HCT 116 = experiment: Interferon-stimulated gene expression in HCT 116; assay type: cell-based, human; conditions: FIG. 4, FIGS. 5A-5D
B16F10 = experiment: MDA5, IFN-β, CXCL10 levels in murine cancer cell line B16F10; assay type: cell-based; conditions: FIG. 6, FIGS. 7A-7B
B16F10 melanoma = experiment: B16F10 mouse melanoma model, anti-tumor efficacy; assay type: in vivo
Description: (§1) Study: A B16F10 mouse melanoma model was used to evaluate the anti-tumor efficacy of Compound 1, alone or in combination with anti-PD-1 therapy.

B16F10 tumors = experiment: Tumor MDA5, IFN-β and CXCL10 levels in mice with B16F10 tumors; assay type: in vivo, mouse
Description: as §1

EC50 (ADAR1) [µM]	Kd (Zα domain of ADAR1 p150) [µM]	SMILES	also measured
≤ 25	≤ 1	CCOC(=O)c1cc(-c2ccccc2)sc1NC(=O)COC(=O)c1cccc(S(N)(=O)=O)c1 [Compound 1, Ethyl 5-phenyl-2-(2-((3-sulfamoylbenzoyl)oxy)acetamido)thiophene-3-carboxylate]	IFN-β induction (via ADAR1 inhibition) (A549 p110 KO cells; FIG. 1A): dose-dependent IFN-β induction; IFN-β induction compared to STING agonists cGAMP, ADU-S100, MSA-002 (A549 p110 KO cells; FIG. 1C): superior IFN-β induction; IFN-β induction (WT A549 cells): Lower IFN-β induction; expression of several interferon-stimulated genes (ISGs) (A549 (p110 KO)): dose-dependent expression; expression of several interferon-stimulated genes (ISGs) (HCT 116): dose-dependent expression; upregulation of MDA5, IFN-β, and CXCL10 (B16F10): dose-dependent upregulation; tumor growth inhibition (TGI) (B16F10 melanoma; B16F10 mouse melanoma model, FIG. 8): 45%; tumor weight reduction (B16F10 melanoma; compared to vehicle control, Compound 1 100 μg, FIG. 9): about 60%; tumor MDA5 mRNA levels (B16F10 tumors; B16F10 melanoma model, FIG. 10): significant increase; induction of IFN-β and CXCL10 (B16F10 tumors; B16F10 tumors in mice, FIG. 11A, 11B): increased induction
> 100	≤ 1	CS(=O)(=O)Nc1cccc(C(=O)OCC(=O)N2CCN(c3ccccc3)C2=O)c1 [Compound 220]	–
> 100	> 25	CCOC(=O)c1cc(-c2ccccc2)ccc1NC(=O)COC(=O)c1cccc(NS(C)(=O)=O)c1 [Compound 171]	–
> 100	≤ 1	CCOC(=O)c1cc(-c2ccccc2)sc1NC(=O)CNC(=O)c1cccc(S(N)(=O)=O)c1 [Compound 416]	–
> 100	≤ 1	CCOC(=O)c1cc(-c2ccccc2)sc1NC(=O)COC(=O)c1cccc(N(C)S(C)(=O)=O)c1 [Compound 130]	–
> 100	≤ 1	CCOC(=O)c1cc(-c2ccccc2)sc1NC(=O)COC(=O)c1cccc(C#N)c1 [Compound 71]	–
> 100	≤ 1	CCOC(=O)c1cc(-c2ccccc2)sc1C(=O)CNC(=O)c1cccc(NS(C)(=O)=O)c1 [Compound 292]	–
